Results published in paper PMC3687523 (Biochemical pharmacology, 2013).

Experiments:
rat brain CYP2D [1] = system: rat brain CYP2D
rat brain CYP2D [2] = conditions: 20 μg i.c.v. propranolol
[3] = 20 μg i.c.v. propranolol, 30 mg/kg s.c. codeine
[4] = 30 min after 30 mg/kg s.c. codeine

Question: Which “percentage of maximal analgesic effect (%MPE) after codeine, compared to vehicle pretreatment” value (rat brain CYP2D [1]; 20 μg i.c.v. propranolol 24 h before 30 mg/kg s.c. codeine, at 15, 20, 30 and 40 min) does the source give for CC(C)NCC(O)COc1cccc2ccccc12 (centres unmarked) [propranolol] here?
Answer: Its value is “significantly lower”.

Question: What about the “area under the analgesia-time curve (AUC) 0-30 min after codeine, compared to vehicle pretreatment” value (rat brain CYP2D [1]; [3]) of the same molecule?
Answer: Its value is “significantly lower”.

Question: What about the “area under the analgesia-time curve (AUC) 60-120 min after codeine, compared to vehicle pretreatment” value (rat brain CYP2D [1]; [3]) of the same molecule?
Answer: Its value is “Neither inhibitor resulted in lower AUC”.

Question: And the “AUC of analgesia after morphine, compared to vehicle pretreatment” value (rat brain CYP2D [1]; 40 μg i.c.v. propranolol, 5 mg/kg s.c. morphine, all time periods)?
Answer: Its value is “did not result in significantly different”.

Question: What about the “%MPE after morphine, compared to vehicle pretreatment” value (rat brain CYP2D [1]; 40 μg i.c.v. propranolol, 5 mg/kg s.c. morphine, all time points) of the same molecule?
Answer: The value was “did not result in significantly different %MPE”.

Question: What about the “brain morphine concentration, compared to vehicle-pretreated rats” value (rat brain CYP2D [2]; [4]) of the same molecule?
Answer: The value was “significantly lower”.

Question: What about the “plasma morphine concentration, compared to vehicle-pretreated rats” value (rat brain CYP2D [2]; [4]) of the same molecule?
Answer: Its value is “equal”.

Question: And the “brain morphine concentrations, propranolol- vs vehicle-pretreated rats” value (rat brain CYP2D [2]; at both 60 and 90 min after 30 mg/kg s.c. codeine)?
Answer: Its value is “no significant difference”.
